Assay results from patent US5656449A, “Neutral unsymmetrical cyanine dyes” (Molecular Probes, Inc., priority 1995, dated 1997).
Counter-ions that a name gives are not always drawn.

How the values were obtained:
[1] = test system: Lambda DNA/Hind III fragments; assay: Staining of nucleic acids in electrophoresis gels; conditions: for detection limit in DNA gel: 1% agarose/TBE minigel, 1 μM dye in 1XTBE, 30 minutes
Description: Two separate 1% agarose/TBE (89 mM tris-borate, 2 mM EDTA) minigels are loaded with Lambda DNA/Hind III fragments in a 3-fold serial dilution series of 1 μg, 333 ng, 111 ng, 37.0 ng, 12.4 ng 4.1 ng, 1.4ng. 0.5 ng, 0.2 ng, and 0.05 ng per lane. After the gels are subjected to electrophoresis, the gels are stained with either Dye 510 or Dye 798, as a 1 μM solution in 1XTBE for 30 minutes.
After staining, each gel is illuminated at 254 nm using an epi-illuminator.Gels are photographed with POLAROID 667 black and white print film, Dye 798 stains the gel with a detection limit of 350 pg/band, while Dye 510 stains the gel with a detection limit of 180 pg/band.

[2] = test system: rat basophilic leukemia (RBL) cells; assay: Rate of dye uptake in live cells; assay type: cell-based; conditions: 1 μM-scale dye (3 μL of 1 mM in 3 mL), excited at 490 nm, emission 520 nm; ±~2 sec
Description: Dye uptake data were acquired using rat basophilic leukemia (RBL) cells. A suspension of RBL cells at a concentration of 1×10^6 cells/mL is prepared in room-temperature HEPES-buffered Tyrode's buffer containing 0.1% bovine serum albumin. Three μL of a 1 mM dye solution (in DMSO) is added at T=0 to an acrylic, 1 cm pathlength fluorescence cuvette containing 3 mL of the previously prepared RBL cell suspension. The suspension is then stirred continuously with a Teflon-coated magnetic stir bar. The samples are excited at 490 nm, and the fluorescence emission of the suspension at 520 nm is measured at 200 msec intervals for at least 5 minutes. The T1/2 value represents the time, in seconds, required for the fluorescence of the suspension to reach an intensity half-way between basal fluorescence level and peak fluorescence (±~2 sec).

[3] = test system: cells; conditions: background art; cited from earlier work
[4] = test system: NIH 3T3 fibroblasts; assay: Discrimination of plasma membrane-compromised fibroblasts; assay type: cell-based; conditions: 0.1 or 1.0 μM dye, 5 minutes
Description: NIH 3T3 fibroblasts are grown to 75% confluency on 18 mm^2 glass coverslips under standard tissue culture conditions. Coverslips of 3T3 cells are exposed to 0.0001% to 0.1% saponin in HEPES-buffered complete saline solution (HBSS) for 10 minutes at room temperature and subsequently rinsed into HBSS containing 0.1 or 1.0 μM Dye 4100. After incubation for 5 minutes, coverslips are washed with HBSS and mounted on glass microscope slides using glass coverslips as spacers to avoid crushing the cells. The cell fluorescence is observed in the epi-fluorescence microscope using a 40X 0.85 NA objective lens and a standard rhodamine long-pass filter set (546 nm excitation/580 nm emission).

[5] = test system: Saccharomyces cerevisiae; assay: Viability determination of cultured yeast; assay type: cell-based; conditions: 1 μM dye, 15 minutes, 490 nm-excited
Description: A culture of Saccharomyces cerevisiae is grown in 75 mL of yeast extract-peptone-dextrose (YPD) broth for 2 weeks at 30° C., shaking at 200 rpm in a capped 250 mL Erlenmeyer flask. A 2 mL sample is taken aseptically each day. One mL of this sample is serially diluted in sterile 2% glucose solution and 0.1 mL plated on YPD agar in standard r 100 mm petri dishes. Yeast numbers in the dilution samples having visible turbidity are quantified using a Petroff-Hauser counting chamber. The other 1 mL of the sample is centrifuged in a microcentrifuge at 5,000 rpm for 5 minutes, and resuspended in 100 μL of 1 μM Dye 509 in 2% sterile dextrose solution. After incubation for 15 minutes with the dye, the sample is diluted to 3 mL and the 490 nm-excited […] fluorescence is measured relative to a series of standard fluorescein solutions spanning a 10,000-fold range in fluorescence.

[6] = illumination at 254 nm, 1 μM dye

CCN(CC)c1cc(C=C2Sc3ccccc3N2CC)c2ccccc2n1 [Dye 510]
detection limit in DNA gel ([1]; illumination at 254 nm): 180 pg/band
fluorescence colour of stained DNA-containing bands [1, 6]: blue-green fluorescence

CN1C(=Cc2ccncc2)Sc2ccccc21 [Dye 7101]
T1/2 for cell loading [2]: 7 s

CN1C(=Cc2cc[n+](C)c3ccccc23)Sc2ccccc21 [Thiazole Orange, reference compound]
limit of detection in DNA gel ([1]; illumination of 254 nm, comparison dye): 1-2 ng/band
T1/2 for cell loading [2]: 9 s
staining of cells [3]: readily stains many mammalian cells, yet does not effectively stain some eukaryotic cells

CCCCc1cc(C=C2Sc3ccccc3N2CC)c2ccccc2n1 [Dye 1268]
T1/2 for cell loading [2]: 3 s

CCN1C(=Cc2cc(-c3ccccc3)nc3ccccc23)Sc2ccccc21 [Dye 4100]
staining of cells with compromised plasma membranes ([4]; 0.0001% to 0.1% saponin): stain brightly
staining of untreated 3T3 cells [4]: virtually unstained

CCN1C(=Cc2cc(Sc3ccccc3)nc3ccccc23)Sc2ccccc21 [Dye 509]
fluorescence at 520 nm with increasing proportion of dead cells [5]: increase in fluorescence at 520 nm

CCN1C(=Cc2ccnc3ccccc23)Sc2ccccc21 [Dye 1266]
T1/2 for cell loading [2]: 2 s

CN1C(=Cc2ccnc3ccccc23)Oc2ccccc21 [Dye 799]
T1/2 for cell loading [2]: 2 s

Cc1cc(C=C2Sc3ccccc3N2C)c2ccccc2n1 [Dye 523-2]
T1/2 for cell loading [2]: 1 s

CN1C(=Cc2ccnc3ccccc23)Sc2ccccc21 [Dye 798, 4-(2,3-dihydro-3-methyl-(benzo-1,3-thiazol-2-yl)-methylidine)-quinolinium tosylate]
detection limit in DNA gel ([1]; illumination at 254 nm): 350 pg/band
background staining of gel [1, 6]: no observable background staining
fluorescence colour of stained DNA-containing bands [1, 6]: blue-green fluorescence
T1/2 for cell loading [2]: 3 s

Cc1cc(C=C2Sc3ccccc3N2C)nc2ccccc12 [Dye 523-1]
T1/2 for cell loading [2]: 41 s
